These results are taken from article PMC10403574, “Discovery of a pyrrole-pyridinimidazole derivative as novel SIRT6 inhibitor for sensitizing pancreatic cancer to gemcitabine” (Cell Death & Disease, 2023).

The target in data set [1] is SIRT6 (Homo sapiens, UniProt Q8N6T7). Briefly: Biolayer interferometry (BLI) binding. Details: The human full-length SIRT6 gene was inserted into the prokaryotic expression vector (pET-28a (+)); inferred from the pET-28a(+) vector, Ni-NTA purification and Ni-NTA biosensor loading); made in house; host or cells: Escherichia coli BL21 (DE3). Conditions: Octet RED, Ni-NTA biosensors, 25 °C. As to the method: Binding assays were performed using Ni-NTA biosensors on the Octet® Red96 system (ForteBio, Menlo Park, CA) in 96-well microplates and measuring changes wavelength shift (in nm) over time (s). All steps were carried out at 25 °C with the plate shaking speed of 1000 rpm. The total working volume was 200 μL in 96-well microplate (Greiner Bio-one, Germany). The SIRT6 protein and compounds were diluted with phosphate-buffered saline (PBS, pH 7.4). Ni-NTA biosensors were prewetted for at least 10 min in PBS prior to the assay. Afterwards, the Ni-NTA biosensors were immobilized for 180 s with 200 μL culture containing 20 μg/mL SIRT6. After loading, sensors were washed in PBS buffer for another 120 s and transferred to wells containing different concentrations of compound 8a (0, 12.5, 25, 50, 100 μM) for binding. Finally, the dissociation step was carried out in kinetic buffer for 180 s. The assay data were processed and calculated using the ForteBio Octet RED analysis software.

Data set [2] can be described thus: Glucose uptake and insulin secretion in vivo. Details: species or system C57BL/6 mice. The note with it: mice, 8a 10, 20, 30 mg/kg i.p. + glucose 2 g/kg vs glucose group; short term and long term (2 weeks). Here is the method:
Male C57BL/6 mice (18 ± 2 g, 5 weeks old) were randomly divided into four groups with six mice per group. Acute drug toxicity test was performed. Mice were fasted for 6 h, and basal blood glucose and serum insulin levels were measured by using Accu-Check Performa (Roche, Swiss) glucose meter and Mouse Insulin ELISA kit (Solarbio). Compound 8a (10, 20, 30 mg/kg) was intraperitoneally injected for 10 min, followed by glucose (2 g/kg) intraperitoneally injected. The blood glucose concentration was measured at 30 and 60 min after glucose injection, and the serum insulin content of mice was measured at 60 min. Compound 8a was treated every other day for 2 weeks and tested for chronic drug toxicity. According to the above method, the serum glucose and insulin content of mice were measured.

Data set [3] deals with BXPC-3 xenografts. Briefly: BXPC-3 tumor xenograft in nude mice. The class given is in vivo, BALB/c nude mice. Here is the method:
Female BALB/c nude mice (14 ± 2 g, 4 weeks old) were purchase. About 2 × 10^6 of BXPC-3 cells were inoculated into nude mouse flanks. When the tumor volume reached approximately 100 mm^3, mice were randomly divided into four groups with six mice per group before treatment and then treated with vehicle, 8a (20 mg/kg), gemcitabine (10 mg/kg) and their combination every 2 days. Tumor volumes and body weight were measured every 3 days, and use the formula to calculate the tumor volume: V = (L × W × W)/2 (V, tumor volume; L, length; and W, width). Mice were sacrificed and tumor tissues were removed. Tumor tissues were fixed with paraformaldehyde (4%) and embedded with paraffin.
To further confirm whether 8a can enhance the antitumor effects of gemcitabine in vivo, the BXPC-3 PDAC xenografts were used. The mice with tumors received intraperitoneal injection of compound 8a (20 mg/kg), gemcitabine (10 mg/kg), or their combination once every 2 days for 4 weeks. Tumor volumes and body weight of mice were monitored every 3 days.

Data set [4] concerns the target HDAC4 (Homo sapiens, UniProt P56524). Briefly: Deacetylation activity selectivity, HDAC4. It counts as biochemical. An excerpt: (§1) Based on the above results, 8a was further investigated in this study. […] To further evaluate the selectivity of 8a for SIRT6, we examined the effect of 8a on the deacetylation activity of other HDAC family members, including HDAC1-HDAC11, SIRT1-SIRT3 and SIRT5. […] Furthermore, to confirm binding of 8a to SIRT6 in cells, we carried out the cellular thermal shift assay (CETSA). The CETSA approach builds on the thermal shift assay concept where ligand binding to its target protein enhances the target protein stability. We observed that the thermal stability of SIRT6 increased after 8a treatment (Figs. 2c, d).

The target in data set [5] is HDAC11 (Homo sapiens, UniProt Q96DB2). Briefly: Deacetylation activity selectivity, HDAC11. It counts as biochemical.
From the text: as §1

Data set [6] concerns BXPC-3 cells. Briefly: Colony formation assay. The class given is cell-based. The note with it: dose-dependent. Here is the method: The BXPC-3 cells were plated in six-well plates at 1000 cells per well. After 12 h, different concentrations of 8a, Gemcitabine or their combination were added for 7–10 days. The cells were fixed for 15 min with paraformaldehyde (4%) and then stained with crystal violet (0.1%) for 15 min at room temperature. Surviving colonies consisting of 50 or more cells were counted under microscope.

Sequence of HDAC4 (P56524 whole entry, species assumed): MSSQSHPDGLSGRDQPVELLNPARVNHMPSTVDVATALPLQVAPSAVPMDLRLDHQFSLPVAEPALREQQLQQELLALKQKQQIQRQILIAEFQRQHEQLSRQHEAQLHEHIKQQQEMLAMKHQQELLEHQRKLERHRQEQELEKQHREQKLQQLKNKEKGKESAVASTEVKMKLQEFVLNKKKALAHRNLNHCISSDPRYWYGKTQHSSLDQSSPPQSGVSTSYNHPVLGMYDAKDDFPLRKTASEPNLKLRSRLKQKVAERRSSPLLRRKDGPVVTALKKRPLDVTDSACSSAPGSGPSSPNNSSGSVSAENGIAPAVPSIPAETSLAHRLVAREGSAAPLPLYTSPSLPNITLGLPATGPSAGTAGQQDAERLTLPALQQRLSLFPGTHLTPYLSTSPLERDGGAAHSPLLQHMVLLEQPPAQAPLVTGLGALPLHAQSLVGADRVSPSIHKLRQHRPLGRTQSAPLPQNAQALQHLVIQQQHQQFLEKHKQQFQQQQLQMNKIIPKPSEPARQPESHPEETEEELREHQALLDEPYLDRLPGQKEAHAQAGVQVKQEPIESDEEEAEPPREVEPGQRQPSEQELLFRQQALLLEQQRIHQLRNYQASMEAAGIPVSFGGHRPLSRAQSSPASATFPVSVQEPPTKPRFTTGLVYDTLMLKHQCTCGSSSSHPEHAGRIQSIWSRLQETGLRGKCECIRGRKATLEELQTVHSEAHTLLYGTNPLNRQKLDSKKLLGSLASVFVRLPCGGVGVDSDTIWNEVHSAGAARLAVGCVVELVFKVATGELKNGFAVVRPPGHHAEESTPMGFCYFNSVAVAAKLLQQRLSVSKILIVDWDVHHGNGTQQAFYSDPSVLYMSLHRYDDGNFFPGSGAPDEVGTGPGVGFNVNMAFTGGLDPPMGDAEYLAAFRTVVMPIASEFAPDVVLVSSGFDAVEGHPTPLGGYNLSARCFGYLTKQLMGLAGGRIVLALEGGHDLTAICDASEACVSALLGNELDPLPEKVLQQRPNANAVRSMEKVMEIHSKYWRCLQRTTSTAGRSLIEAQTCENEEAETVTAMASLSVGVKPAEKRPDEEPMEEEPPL
Sequence of HDAC11 (Q96DB2 whole entry, species assumed): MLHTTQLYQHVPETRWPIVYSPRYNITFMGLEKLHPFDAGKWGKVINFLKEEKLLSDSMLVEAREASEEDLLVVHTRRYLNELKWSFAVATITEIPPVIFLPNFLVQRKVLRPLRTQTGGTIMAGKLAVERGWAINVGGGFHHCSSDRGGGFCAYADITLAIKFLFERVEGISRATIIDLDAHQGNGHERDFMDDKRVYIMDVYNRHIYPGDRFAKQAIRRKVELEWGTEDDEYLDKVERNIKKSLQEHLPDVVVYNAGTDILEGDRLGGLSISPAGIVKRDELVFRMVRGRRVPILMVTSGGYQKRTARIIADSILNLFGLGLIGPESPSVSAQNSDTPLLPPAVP
Sequence of SIRT6 (Q8N6T7 whole entry): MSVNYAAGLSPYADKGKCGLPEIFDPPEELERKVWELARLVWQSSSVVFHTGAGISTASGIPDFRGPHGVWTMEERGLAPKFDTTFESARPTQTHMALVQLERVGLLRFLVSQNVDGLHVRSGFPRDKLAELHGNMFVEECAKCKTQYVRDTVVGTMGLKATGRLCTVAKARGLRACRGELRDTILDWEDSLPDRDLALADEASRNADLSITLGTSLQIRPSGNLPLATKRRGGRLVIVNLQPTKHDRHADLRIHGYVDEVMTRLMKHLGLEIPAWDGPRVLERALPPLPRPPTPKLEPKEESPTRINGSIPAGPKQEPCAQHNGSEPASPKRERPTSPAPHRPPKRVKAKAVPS

As a reminder, the Kd is the constant that tells how readily two partners part at equilibrium. As a reminder, the IC50 is the concentration needed to halve the response being measured. Higher therefore signals a need for much substance. Molecule `Br.CN(C)C(SCCCCCCn1cnc2c(-c3cc(Br)c(Br)[nH]3)nccc21)=[N+](C)C.[Cl-]` [Compound 8a] displayed a Kd in data set [1] of 16 ± 0.313 µM. Also, the “blood glucose and insulin concentration” value in data set [2] is given as “no significant difference”. For the same molecule, the tumor inhibition in data set [3] (8a 20 mg/kg i.p. once every 2 days for 4 weeks, vs control mice) was found to be 27%. Moreover, the “Ac-H3K9 in tumor tissue” value in data set [3] (western blotting of tumor tissue samples, 8a 20 mg/kg) is given as “elevated”. For the same molecule, the IC50 in data set [4] and in data set [5] was more than 200 µM throughout. The colony formation entry in data set [6] was “much smaller and fewer colonies”.
